Laboratory results from article PMC6429263, “Evolution and Antibacterial Evaluation of 8-Hydroxy-cycloberberine Derivatives as a Novel Family of Antibacterial Agents Against MRSA” (Molecules, 2019).

Tests used:
VISA ATCC 700699 = test: MIC, agar dilution, VISA ATCC 700699; type: cell-based; settings: Staphylococcus aureus; VISA ATCC 700699; read-out: MIC
MSSA 16-1 = test: MIC, agar dilution, MSSA 16-1 (clinical isolate); type: cell-based, S. aureus; settings: Staphylococcus aureus; MSSA 16-1, isolated from patients in China; read-out: MIC
MSSA/MRSA tested strains = tested on: MSSA/MRSA tested strains; design: method as in PMID 29795764, PMID 30145374; settings: cited from earlier work
MSSE ATCC 12228 = test: MIC, agar dilution, MSSE ATCC 12228; type: cell-based, S. epidermidis; settings: Staphylococcus epidermidis, ATCC12228; MSSE ATCC 12228; read-out: MIC
MSSA 15 = test: MIC, agar dilution, MSSA 15 (clinical isolate); type: cell-based, S. aureus; settings: Staphylococcus aureus; MSSA 15, isolated from patients in China; read-out: MIC
MRSA ATCC 43300 = test: MIC, agar dilution, MRSA ATCC 43300; type: cell-based; settings: Staphylococcus aureus; MRSA ATCC 43300; read-out: MIC
VISA ATCC 700698 = test: MIC, agar dilution, VISA ATCC 700698; type: cell-based; settings: Staphylococcus aureus; VISA ATCC 700698; read-out: MIC
MRSA 16-34 = test: MIC, agar dilution, MRSA 16-34; type: cell-based; settings: Staphylococcus aureus; MRSA 16-34; read-out: MIC
MRSA 13-23 = test: MIC, agar dilution, MRSA 13-23; type: cell-based; settings: Staphylococcus aureus; MRSA 13-23; read-out: MIC
MRSA ATCC -BAA-976 = test: MIC, agar dilution, MRSA ATCC-BAA-976 (clindamycin-resistant); type: cell-based; settings: Staphylococcus aureus; MRSA ATCC-BAA-976, clindamycin-resistant S. aureus; read-out: MIC
S.s ATCC 15305 = test: MIC, agar dilution, S.s ATCC 15305; type: cell-based; settings: Staphylococcus saprophyticus, ATCC15305; S. saprophyticus ATCC 15305; read-out: MIC
MRSE 13-3 = test: MIC, agar dilution, MRSE 13-3; type: cell-based, S. epidermidis; settings: Staphylococcus epidermidis; MRSE 13-3; read-out: MIC
S.h ATCC 35982 = test: MIC, agar dilution, S.h ATCC 35982; type: cell-based; settings: Staphylococcus hominis, ATCC35982; S. hominis ATCC 35982; read-out: MIC
MRSE 16-5 = test: MIC, agar dilution, MRSE 16-5; type: cell-based, S. epidermidis; settings: Staphylococcus epidermidis; MRSE 16-5; read-out: MIC
MRSA 13-18 = test: MIC, agar dilution, MRSA 13-18; type: cell-based; settings: Staphylococcus aureus; MRSA 13-18; read-out: MIC
MRSA ATCC-B AA-1708 = test: MIC, agar dilution, MRSA ATCC-BAA-1708 (mupA positive); type: cell-based; settings: Staphylococcus aureus; MRSA ATCC-BAA-1708, mupA positive (mupirocin resistance); read-out: MIC
MSSE 16-5 = test: MIC, agar dilution, MSSE 16-5 (clinical isolate); type: cell-based, S. epidermidis; settings: Staphylococcus epidermidis; MSSE 16-5, isolated from patients in China; read-out: MIC
MSSA ATCC 29213 = test: MIC, agar dilution, MSSA ATCC 29213; type: cell-based, S. aureus; settings: Staphylococcus aureus; MSSA ATCC 29213; read-out: MIC
[1] = Stability in liver microsomes, mouse; type: in vitro ADME, CD-1 mouse
Procedure: (§1) The assay was performed with liver microsomes from CD-1 mouse, SD rat and human. Microsomes in 100 mM potassium phosphate buffer (0.5 mg/mL microsomal protein), cofactor MgCl2 (10 mM), tested compound (1 μM, cosolvent (0.01% DMSO), 0.99% CH3OH), and then NADPH (1 mM) at 37 °C for 60 min. The reaction can be started by the addition of liver microsomes or the tested compound or NADPH. Aliquots were sampled at 0, 5, 10, 20, 30 and 60 min incubation, and enzymatic reaction was stopped by protein precipitation in cold acetonitrile including 100 ng/mL tolbutamide and 100 ng/mL labetalol as internal standard. After centrifugation, samples were then analyzed by LC/MS/MS [26].

[2] = Stability in liver microsomes, rat; type: in vitro ADME, SD rat
Procedure: as §1

[3] = Stability in liver microsomes, human; type: in vitro ADME
Procedure: as §1, with “Microsomes in 100 mM potassium phosphate buffer (0.5 mg/mL microsomal protein), cofactor MgCl2 (10 mM), tested compound (1 μM, cosolvent (0.01% DMSO), 0.99% CH3OH), and then NADPH (1 mM) at 37 °C for 60 min.” left out

[4] = tested on: drug-susceptible strains: MSSA, MSSE, S. saprophyticus, S. hominis; test: MIC across the panel of drug-susceptible Gram-positive strains; type: cell-based; settings: drug-susceptible Gram-positive strains of Table 1
Text: SAR study for antibacterial activity against drug-susceptible Gram-positive bacteria was initially carried out, taking Lev and compound 1 as reference drugs. […] Bacteria strains used in this study were from the ATCC collection and clinical isolates in Chinese hospitals. The influence of the methylenedioxy ring was explored first, and compounds 6 and 10 were created and tested.

Structure (SMILES)	MIC (VISA ATCC 700699)	MIC (MSSA 16-1)	MIC (MSSE ATCC 12228)	MIC (MSSA 15)	MIC (MRSA ATCC 43300)	MIC (VISA ATCC 700698)	MIC (MRSA 16-34)	MIC (MRSA 13-23)	MIC (MRSA ATCC -BAA-976)	MIC (S.s ATCC 15305)	MIC (MRSE 13-3)	MIC (S.h ATCC 35982)	MIC (MRSE 16-5)	MIC (MRSA 13-18)	MIC (MRSA ATCC-B AA-1708)	MIC (MSSE 16-5)	MIC (MSSA ATCC 29213)	antimicrobial activity [4]	further results
COc1ccc2c(c[n+]3c4c2ccc2c5c(cc(c24)CC3)OCO5)c1OC [CBBR, cycloberberine]	> 64 µg/mL	> 64 µg/mL	> 64 µg/mL	> 64 µg/mL	> 64 µg/mL	> 64 µg/mL	> 64 µg/mL	> 64 µg/mL	> 64 µg/mL	> 64 µg/mL	> 64 µg/mL	> 64 µg/mL	> 64 µg/mL	> 64 µg/mL	> 64 µg/mL	> 64 µg/mL	> 64 µg/mL	–	bactericidal activity (MSSA/MRSA tested strains; MSSA/MRSA): no bactericidal activity at all; MICs (range over strains) (MSSA/MRSA tested strains; tested strains such as MRSA): > 64 µg/mL
C[C@]12CC[C@H]3[C@@H](CCC4=CC(=O)CC[C@@]43C)[C@@H]1CC[C@@H]2O [Tes, testosterone, reference compound]	–	–	–	–	–	–	–	–	–	–	–	–	–	–	–	–	–	–	Remaining Ratio (T = 60 min) ([1]; 60 min): 0%; half-life at 1 μM ([1]; CD-1, 1 μM): 5.5 min; microsomal CLint at 1 μM ([1]; CD-1, 1 μM, read-out: CL Int (mic)): 254 µL/min/mg; Remaining Ratio (T = 60 min) ([2]; 60 min): 0%; half-life at 1 μM ([2]; SD, 1 μM): 0.6 min; microsomal CLint at 1 μM ([2]; SD, 1 μM, read-out: CL Int (mic)): 2350 µL/min/mg; half-life at 1 μM ([3]; 1 μM): 12.9 min; Remaining Ratio (T = 60 min) ([3]; 60 min): 3.9%
COc1ccc2c(c[n+]3c4c2ccc2c(OC)c(OC)cc(c24)CC3)c1O [compound 6, 1,2-Dimethoxy-8-hydroxy-9-methoxycycloberberine Chloride]	> 64 µg/mL	> 64 µg/mL	> 64 µg/mL	> 64 µg/mL	> 64 µg/mL	> 64 µg/mL	> 64 µg/mL	> 64 µg/mL	> 64 µg/mL	> 64 µg/mL	> 64 µg/mL	> 64 µg/mL	> 64 µg/mL	> 64 µg/mL	> 64 µg/mL	> 64 µg/mL	> 64 µg/mL	lost the antimicrobial activities partially or completely	–
COc1ccc2c(c[n+]3c4c2ccc2c(O)c(O)cc(c24)CC3)c1O [compound 10, 1,2,8-Trihydroxy-9-methoxycycloberberine Chloride]	32 µg/mL	32 µg/mL	8 µg/mL	16 µg/mL	32 µg/mL	32 µg/mL	16 µg/mL	64 µg/mL	64 µg/mL	32 µg/mL	32 µg/mL	32 µg/mL	16 µg/mL	32 µg/mL	16 µg/mL	16 µg/mL	32 µg/mL	lost the antimicrobial activities partially or completely	–
